Measured values from PMC7385619, “A triple action CDK4/6-PI3K-BET inhibitor with augmented cancer cell cytotoxicity” (Cell Discovery, 2020).
Like-named read-outs stand apart in the source and are kept apart here.

Tests used:
Assay in all cases: KINOMEscan assay (Eurofins DiscoverX)
Assay type in all cases: binding
kinome (kinase panel) [1] = target: T1, kinome (kinase panel) (Homo sapiens, UniProt O14920); settings: IKK-beta (Entrez IKBKB); 1000 nM; read-out: Percent Control
T1 construct: purchased Eurofins DiscoverX

kinome (kinase panel) [2] = target: T2, kinome (kinase panel) (Homo sapiens, UniProt O60331); settings: PIP5K1C; 1000 nM; read-out: Percent Control
T2 construct: purchased Eurofins DiscoverX

kinome (kinase panel) [3] = target: T3, kinome (kinase panel) (Homo sapiens, UniProt O76039); settings: CDKL5; 1000 nM; read-out: Percent Control
T3 construct: purchased Eurofins DiscoverX

kinome (kinase panel) [4] = target: T4, kinome (kinase panel) (Homo sapiens, UniProt P00519); settings: 1000 nM, read-out: Percent Control
T4 construct: purchased Eurofins DiscoverX
T4 sequence (P00519 whole entry): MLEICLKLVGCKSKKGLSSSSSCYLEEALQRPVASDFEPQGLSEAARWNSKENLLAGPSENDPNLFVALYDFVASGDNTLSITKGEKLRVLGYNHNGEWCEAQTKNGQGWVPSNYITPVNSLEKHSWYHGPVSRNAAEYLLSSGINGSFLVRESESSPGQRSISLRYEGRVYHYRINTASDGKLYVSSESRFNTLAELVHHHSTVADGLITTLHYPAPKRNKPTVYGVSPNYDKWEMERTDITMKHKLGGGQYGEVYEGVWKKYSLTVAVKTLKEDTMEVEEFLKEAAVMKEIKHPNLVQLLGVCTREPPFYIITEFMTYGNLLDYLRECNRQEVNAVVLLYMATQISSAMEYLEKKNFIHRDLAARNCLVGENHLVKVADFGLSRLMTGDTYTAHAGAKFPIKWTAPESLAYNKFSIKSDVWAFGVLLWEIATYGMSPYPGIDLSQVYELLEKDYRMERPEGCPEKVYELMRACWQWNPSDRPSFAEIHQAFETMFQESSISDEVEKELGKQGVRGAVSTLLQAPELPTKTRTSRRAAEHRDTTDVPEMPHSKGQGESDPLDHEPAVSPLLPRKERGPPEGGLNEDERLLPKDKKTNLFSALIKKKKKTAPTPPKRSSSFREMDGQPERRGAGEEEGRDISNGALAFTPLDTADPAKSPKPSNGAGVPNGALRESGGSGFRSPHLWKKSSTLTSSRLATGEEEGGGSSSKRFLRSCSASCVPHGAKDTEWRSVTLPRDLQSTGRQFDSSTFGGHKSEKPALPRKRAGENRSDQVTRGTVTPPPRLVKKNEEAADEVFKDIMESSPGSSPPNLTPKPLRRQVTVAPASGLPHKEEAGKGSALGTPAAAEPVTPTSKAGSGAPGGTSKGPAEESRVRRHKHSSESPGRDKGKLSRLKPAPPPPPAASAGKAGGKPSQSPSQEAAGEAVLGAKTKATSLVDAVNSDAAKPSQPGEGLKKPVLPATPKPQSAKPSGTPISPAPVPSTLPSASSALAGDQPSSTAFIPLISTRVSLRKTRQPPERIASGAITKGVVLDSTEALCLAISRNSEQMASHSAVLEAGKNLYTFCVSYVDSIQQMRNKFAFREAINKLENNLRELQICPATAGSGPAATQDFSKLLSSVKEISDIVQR

kinome (kinase panel) [5] = target: T5, kinome (kinase panel) (Homo sapiens, UniProt P06241); settings: FYN; 1000 nM; read-out: Percent Control
T5 construct: purchased Eurofins DiscoverX

kinome (kinase panel) [6] = target: T6, kinome (kinase panel) (Homo sapiens, UniProt P11802); settings: 1000 nM, read-out: Percent Control
T6 construct: purchased Eurofins DiscoverX
T6 sequence (P11802 whole entry): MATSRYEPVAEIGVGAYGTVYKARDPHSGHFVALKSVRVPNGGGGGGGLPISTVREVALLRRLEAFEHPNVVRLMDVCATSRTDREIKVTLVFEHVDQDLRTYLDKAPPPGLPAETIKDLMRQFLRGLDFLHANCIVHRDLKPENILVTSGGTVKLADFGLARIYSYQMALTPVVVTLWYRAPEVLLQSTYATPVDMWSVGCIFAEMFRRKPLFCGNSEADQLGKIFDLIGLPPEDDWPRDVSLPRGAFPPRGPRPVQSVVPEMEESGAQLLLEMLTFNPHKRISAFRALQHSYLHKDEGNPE

kinome (kinase panel) [7] = target: T7, kinome (kinase panel) (Homo sapiens, UniProt P30530); settings: AXL; 1000 nM; read-out: Percent Control
T7 construct: purchased Eurofins DiscoverX

kinome (kinase panel) [8] = target: T8, kinome (kinase panel) (Homo sapiens, UniProt P36507); settings: MEK2 (Entrez MAP2K2); 1000 nM; read-out: Percent Control
T8 construct: purchased Eurofins DiscoverX
T8 sequence (P36507 whole entry): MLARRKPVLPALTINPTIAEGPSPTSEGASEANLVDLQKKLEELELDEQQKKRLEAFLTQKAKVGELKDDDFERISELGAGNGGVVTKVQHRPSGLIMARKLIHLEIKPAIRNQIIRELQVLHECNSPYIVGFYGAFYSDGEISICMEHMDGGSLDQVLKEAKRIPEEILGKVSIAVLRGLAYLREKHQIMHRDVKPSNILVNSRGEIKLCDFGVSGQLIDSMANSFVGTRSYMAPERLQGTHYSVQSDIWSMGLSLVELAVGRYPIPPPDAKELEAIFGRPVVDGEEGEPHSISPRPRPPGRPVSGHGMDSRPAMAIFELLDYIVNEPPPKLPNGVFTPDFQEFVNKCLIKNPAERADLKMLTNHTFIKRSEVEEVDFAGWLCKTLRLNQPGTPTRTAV

kinome (kinase panel) [9] = target: T9, kinome (kinase panel) (Homo sapiens, UniProt P36888, N841I); settings: […]; 1000 nM; read-out: Percent Control
T9 construct: purchased Eurofins DiscoverX

kinome (kinase panel) [10] = target: T10, kinome (kinase panel) (Homo sapiens, UniProt P43403); settings: ZAP70; 1000 nM; read-out: Percent Control
T10 construct: purchased Eurofins DiscoverX

kinome (kinase panel) [11] = target: T11, kinome (kinase panel) (Homo sapiens, UniProt P52564); settings: MEK6 (Entrez MAP2K6); 1000 nM; read-out: Percent Control
T11 construct: purchased Eurofins DiscoverX

kinome (kinase panel) [12] = target: T12, kinome (kinase panel) (Homo sapiens, UniProt P53350); settings: PLK1; 1000 nM; read-out: Percent Control
T12 construct: purchased Eurofins DiscoverX

kinome (kinase panel) [13] = target: T13, kinome (kinase panel) (Homo sapiens, UniProt P68400); settings: CSNK2A1; 1000 nM; read-out: Percent Control
T13 construct: purchased Eurofins DiscoverX

kinome (kinase panel) [14] = target: T14, kinome (kinase panel) (Homo sapiens, UniProt P78356); settings: PIP5K2B (Entrez PIP4K2B); 1000 nM; read-out: Percent Control
T14 construct: purchased Eurofins DiscoverX
T14 sequence (P78356 whole entry): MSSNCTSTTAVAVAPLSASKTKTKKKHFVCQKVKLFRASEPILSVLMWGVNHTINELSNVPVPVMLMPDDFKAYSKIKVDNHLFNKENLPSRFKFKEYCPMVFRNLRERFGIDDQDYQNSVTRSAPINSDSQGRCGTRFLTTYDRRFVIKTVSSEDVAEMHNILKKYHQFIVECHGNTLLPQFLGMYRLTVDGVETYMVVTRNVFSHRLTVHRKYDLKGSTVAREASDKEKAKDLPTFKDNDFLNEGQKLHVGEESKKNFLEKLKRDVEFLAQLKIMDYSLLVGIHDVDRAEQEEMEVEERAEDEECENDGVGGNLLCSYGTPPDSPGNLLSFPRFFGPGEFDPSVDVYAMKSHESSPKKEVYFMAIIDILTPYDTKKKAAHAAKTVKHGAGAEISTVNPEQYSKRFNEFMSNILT

kinome (kinase panel) [15] = target: T15, kinome (kinase panel) (Homo sapiens, UniProt Q00536); settings: PCTK1 (Entrez CDK16); 1000 nM; read-out: Percent Control
T15 construct: purchased Eurofins DiscoverX

kinome (kinase panel) [16] = target: T16, kinome (kinase panel) (Homo sapiens, UniProt Q13464); settings: ROCK1; 1000 nM; read-out: Percent Control
T16 construct: purchased Eurofins DiscoverX

kinome (kinase panel) [17] = target: T17, kinome (kinase panel) (Homo sapiens, UniProt Q14004); settings: CDC2L5 (Entrez CDK13); 1000 nM; read-out: Percent Control
T17 construct: purchased Eurofins DiscoverX

kinome (kinase panel) [18] = target: T18, kinome (kinase panel) (Homo sapiens, UniProt Q15139); settings: PRKD1; 1000 nM; read-out: Percent Control
T18 construct: purchased Eurofins DiscoverX

kinome (kinase panel) [19] = target: T19, kinome (kinase panel) (Homo sapiens, UniProt Q16539); settings: p38-alpha (Entrez MAPK14); 1000 nM; read-out: Percent Control
T19 construct: purchased Eurofins DiscoverX

kinome (kinase panel) [20] = target: T20, kinome (kinase panel) (Homo sapiens, UniProt Q6DT37); settings: DMPK2 (Entrez CDC42BPG); 1000 nM; read-out: Percent Control
T20 construct: purchased Eurofins DiscoverX

kinome (kinase panel) [21] = target: T21, kinome (kinase panel) (Homo sapiens, UniProt Q8IU85); settings: CAMK1D; 1000 nM; read-out: Percent Control
T21 construct: purchased Eurofins DiscoverX
T21 sequence (Q8IU85 whole entry): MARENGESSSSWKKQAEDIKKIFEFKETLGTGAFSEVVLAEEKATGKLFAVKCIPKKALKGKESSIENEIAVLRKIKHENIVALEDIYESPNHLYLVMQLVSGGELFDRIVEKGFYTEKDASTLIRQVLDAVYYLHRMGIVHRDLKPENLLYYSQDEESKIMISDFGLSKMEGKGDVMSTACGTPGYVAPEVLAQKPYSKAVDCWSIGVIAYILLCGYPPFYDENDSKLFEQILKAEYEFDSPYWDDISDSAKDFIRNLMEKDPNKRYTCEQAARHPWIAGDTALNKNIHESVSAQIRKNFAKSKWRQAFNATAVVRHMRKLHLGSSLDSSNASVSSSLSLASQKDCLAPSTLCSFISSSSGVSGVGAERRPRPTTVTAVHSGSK

kinome (kinase panel) [22] = target: T22, kinome (kinase panel) (Homo sapiens, UniProt Q96RR4); settings: CAMKK2; 1000 nM; read-out: Percent Control
T22 construct: purchased Eurofins DiscoverX

kinome (kinase panel) [23] = target: T23, kinome (kinase panel) (Homo sapiens, UniProt Q9BX84); settings: TRPM6; 1000 nM; read-out: Percent Control
T23 construct: purchased Eurofins DiscoverX

kinome (kinase panel) [24] = target: T24, kinome (kinase panel) (Homo sapiens, UniProt Q9NRH2); settings: SNRK; 1000 nM; read-out: Percent Control
T24 construct: purchased Eurofins DiscoverX

kinome (kinase panel) [25] = target: T25, kinome (kinase panel) (Homo sapiens, UniProt Q9NRM7); settings: LATS2; 1000 nM; read-out: Percent Control
T25 construct: purchased Eurofins DiscoverX

kinome (kinase panel) [26] = target: T26, kinome (kinase panel) (Homo sapiens, UniProt Q9NY57); settings: YANK2 (STK32B); 1000 nM; read-out: Percent Control
T26 construct: purchased Eurofins DiscoverX

kinome (kinase panel) [27] = target: T27, kinome (kinase panel) (Homo sapiens, UniProt Q9P289); settings: MST4; 1000 nM; read-out: Percent Control
T27 construct: purchased Eurofins DiscoverX

kinome (kinase panel) [28] = target: T28, kinome (kinase panel) (Homo sapiens, UniProt Q9UM73); settings: ALK; 1000 nM; read-out: Percent Control
T28 construct: purchased Eurofins DiscoverX

kinome (kinase panel) [29] = target: T29, kinome (kinase panel) (Homo sapiens, UniProt Q9Y2H9); settings: MAST1; 1000 nM; read-out: Percent Control
T29 construct: purchased Eurofins DiscoverX
T29 sequence (Q9Y2H9 whole entry): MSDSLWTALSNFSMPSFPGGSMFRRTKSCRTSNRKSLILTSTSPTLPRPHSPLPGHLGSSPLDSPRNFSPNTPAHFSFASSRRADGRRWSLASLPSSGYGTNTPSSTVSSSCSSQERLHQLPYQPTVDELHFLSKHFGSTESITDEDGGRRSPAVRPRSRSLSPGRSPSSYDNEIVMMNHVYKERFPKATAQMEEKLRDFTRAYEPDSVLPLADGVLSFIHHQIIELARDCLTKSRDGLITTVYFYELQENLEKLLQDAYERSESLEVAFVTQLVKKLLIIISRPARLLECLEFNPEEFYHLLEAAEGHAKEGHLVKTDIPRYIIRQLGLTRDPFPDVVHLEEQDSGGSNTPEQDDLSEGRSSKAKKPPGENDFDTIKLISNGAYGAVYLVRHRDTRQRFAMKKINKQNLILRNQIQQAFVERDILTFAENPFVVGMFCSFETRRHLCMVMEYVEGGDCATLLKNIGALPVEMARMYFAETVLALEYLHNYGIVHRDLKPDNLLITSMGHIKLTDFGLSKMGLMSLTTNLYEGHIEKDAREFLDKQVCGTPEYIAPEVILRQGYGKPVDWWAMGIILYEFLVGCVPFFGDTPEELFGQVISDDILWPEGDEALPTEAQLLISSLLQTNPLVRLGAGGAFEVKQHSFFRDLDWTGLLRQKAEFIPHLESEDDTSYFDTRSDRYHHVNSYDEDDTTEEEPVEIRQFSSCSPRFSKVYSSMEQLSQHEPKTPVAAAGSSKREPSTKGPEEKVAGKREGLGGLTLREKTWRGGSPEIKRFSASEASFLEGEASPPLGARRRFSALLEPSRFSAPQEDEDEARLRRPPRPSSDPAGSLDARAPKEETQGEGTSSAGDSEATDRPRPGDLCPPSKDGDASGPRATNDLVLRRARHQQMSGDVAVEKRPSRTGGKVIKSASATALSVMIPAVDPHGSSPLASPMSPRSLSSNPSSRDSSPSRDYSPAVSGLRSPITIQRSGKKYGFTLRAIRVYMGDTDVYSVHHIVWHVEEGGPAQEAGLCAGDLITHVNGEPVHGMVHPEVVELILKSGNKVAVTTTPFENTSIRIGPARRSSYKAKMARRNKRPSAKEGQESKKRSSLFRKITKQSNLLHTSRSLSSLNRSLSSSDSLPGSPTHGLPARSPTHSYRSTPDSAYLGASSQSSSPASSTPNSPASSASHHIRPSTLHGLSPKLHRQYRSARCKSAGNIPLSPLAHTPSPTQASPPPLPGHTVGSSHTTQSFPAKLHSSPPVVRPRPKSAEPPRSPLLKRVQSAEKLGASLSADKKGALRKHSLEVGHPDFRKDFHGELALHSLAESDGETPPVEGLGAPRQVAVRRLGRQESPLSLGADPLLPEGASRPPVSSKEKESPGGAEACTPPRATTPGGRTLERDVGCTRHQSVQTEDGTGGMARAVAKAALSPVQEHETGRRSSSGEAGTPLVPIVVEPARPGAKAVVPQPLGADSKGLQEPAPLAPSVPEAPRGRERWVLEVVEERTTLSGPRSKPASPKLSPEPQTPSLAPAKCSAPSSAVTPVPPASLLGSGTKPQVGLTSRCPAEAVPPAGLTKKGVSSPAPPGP

kinome (kinase panel) [30] = target: T30, kinome (kinase panel) (Homo sapiens, UniProt Q9Y2U5); settings: MAP3K2; 1000 nM; read-out: Percent Control
T30 construct: purchased Eurofins DiscoverX

kinome (kinase panel) [31] = target: T31, kinome (kinase panel) (Homo sapiens, UniProt Q9Y463); settings: DYRK1B; 1000 nM; read-out: Percent Control
T31 construct: purchased Eurofins DiscoverX
T31 sequence (Q9Y463 whole entry): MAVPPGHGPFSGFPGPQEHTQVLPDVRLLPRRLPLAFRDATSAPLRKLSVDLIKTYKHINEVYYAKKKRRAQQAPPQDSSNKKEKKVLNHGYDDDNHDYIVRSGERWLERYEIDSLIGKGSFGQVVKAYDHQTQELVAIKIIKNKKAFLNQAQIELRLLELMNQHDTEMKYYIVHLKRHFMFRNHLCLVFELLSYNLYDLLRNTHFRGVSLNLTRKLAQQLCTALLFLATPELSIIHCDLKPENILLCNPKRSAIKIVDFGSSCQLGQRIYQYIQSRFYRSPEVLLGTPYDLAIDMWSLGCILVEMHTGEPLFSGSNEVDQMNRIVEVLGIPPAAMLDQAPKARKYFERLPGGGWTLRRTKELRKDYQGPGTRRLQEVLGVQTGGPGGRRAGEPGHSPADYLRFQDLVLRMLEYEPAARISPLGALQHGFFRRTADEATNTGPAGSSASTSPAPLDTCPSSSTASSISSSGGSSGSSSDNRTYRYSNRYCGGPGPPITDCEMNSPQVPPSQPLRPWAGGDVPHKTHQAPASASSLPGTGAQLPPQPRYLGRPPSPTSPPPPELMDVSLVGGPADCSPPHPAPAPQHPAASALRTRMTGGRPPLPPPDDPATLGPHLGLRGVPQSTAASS

Question: With `CN(C)C(=O)c1cc2cnc(Nc3ccc(-c4csc5c(=O)cc(N6CCOCC6)oc45)cc3)nc2n1C1CCCC1` [SRX3177] as the compound, how does the remaining binding at 1 µM (kinome (kinase panel) [1]) read?
Answer: 71%

Question: What about the remaining binding at 1 µM (kinome (kinase panel) [2]) of the same compound?
Answer: 87%

Question: What about the remaining binding at 1 µM (kinome (kinase panel) [3]) of the same compound?
Answer: 65%

Question: And the remaining binding at 1 µM (kinome (kinase panel) [4]; ABL1-nonphosphorylated)?
Answer: 78%

Question: And the remaining binding at 1 µM (kinome (kinase panel) [4]; ABL1-phosphorylated)?
Answer: 63%

Question: And the remaining binding at 1 µM (kinome (kinase panel) [5])?
Answer: 96%

Question: And the remaining binding at 1 µM (kinome (kinase panel) [6]; CDK4-cyclinD1)?
Answer: 0.9%

Question: What about the remaining binding at 1 µM (kinome (kinase panel) [6]; CDK4-cyclinD3) of the same compound?
Answer: 1.1%

Question: What about the remaining binding at 1 µM (kinome (kinase panel) [6]; CDK4) of the same compound?
Answer: 18%

Question: What about the remaining binding at 1 µM (kinome (kinase panel) [7]) of the same compound?
Answer: 89%

Question: And the remaining binding at 1 µM (kinome (kinase panel) [8])?
Answer: 50%

Question: And the remaining binding at 1 µM (kinome (kinase panel) [9])?
Answer: 7.2%

Question: What about the remaining binding at 1 µM (kinome (kinase panel) [10]) of the same compound?
Answer: 100%

Question: What about the remaining binding at 1 µM (kinome (kinase panel) [11]) of the same compound?
Answer: 100%

Question: What about the remaining binding at 1 µM (kinome (kinase panel) [12]) of the same compound?
Answer: 75%

Question: What about the remaining binding at 1 µM (kinome (kinase panel) [13]) of the same compound?
Answer: 4.8%

Question: And the remaining binding at 1 µM (kinome (kinase panel) [14])?
Answer: 48%

Question: And the remaining binding at 1 µM (kinome (kinase panel) [15])?
Answer: 21%

Question: And the remaining binding at 1 µM (kinome (kinase panel) [16])?
Answer: 87%

Question: What about the remaining binding at 1 µM (kinome (kinase panel) [17]) of the same compound?
Answer: 4.1%

Question: What about the remaining binding at 1 µM (kinome (kinase panel) [18]) of the same compound?
Answer: 100%

Question: And the remaining binding at 1 µM (kinome (kinase panel) [19])?
Answer: 100%

Question: What about the remaining binding at 1 µM (kinome (kinase panel) [20]) of the same compound?
Answer: 91%

Question: And the remaining binding at 1 µM (kinome (kinase panel) [21])?
Answer: 95%

Question: And the remaining binding at 1 µM (kinome (kinase panel) [22])?
Answer: 36%

Question: What about the remaining binding at 1 µM (kinome (kinase panel) [23]) of the same compound?
Answer: 99%

Question: What about the remaining binding at 1 µM (kinome (kinase panel) [24]) of the same compound?
Answer: 82%

Question: And the remaining binding at 1 µM (kinome (kinase panel) [25])?
Answer: 42%

Question: And the remaining binding at 1 µM (kinome (kinase panel) [26])?
Answer: 100%

Question: And the remaining binding at 1 µM (kinome (kinase panel) [27])?
Answer: 41%

Question: What about the remaining binding at 1 µM (kinome (kinase panel) [28]) of the same compound?
Answer: 66%

Question: And the remaining binding at 1 µM (kinome (kinase panel) [29])?
Answer: 53%

Question: What about the remaining binding at 1 µM (kinome (kinase panel) [30]) of the same compound?
Answer: 72%

Question: And the remaining binding at 1 µM (kinome (kinase panel) [31])?
Answer: 56%
